Measured values published in patent publication US20180085330A1, “Dose Adjustment” (AbbVie Inc., priority 2016, published 2018).
Read-outs that look alike come from different tables or passages of the source.

Assays:
[1] = Drug interaction studies: pharmacokinetic parameters of coadministered drug in the presence of glecaprevir/pibrentasvir; assay type: in vivo, human
Method: Drug interaction studies were performed with glecaprevir/pibrentasvir and other drugs that are likely to be coadministered and with drugs commonly used as probes for pharmacokinetic interactions.

[2] = cited from earlier work
[3] = EE/Levonorgestrel 20 μg/100 μg once daily, GLE/PIB 300/120 mg once daily
[4] = EE/Norgestimate 35 μg/250 μg once daily, GLE/PIB 300/120 mg once daily
[5] = rilpivirine 25 mg once daily, GLE/PIB 300/120 mg once daily
[6] = EVG/COBI/FTC/TAF 150/150/200/10 mg once daily, GLE/PIB 300/120 mg once daily
[7] = raltegravir 400 mg twice daily, GLE/PIB 300/120 mg once daily
[8] = dextromethorphan hydrobromide 30 mg single dose, GLE/PIB 300/120 mg once daily
[9] = omeprazole 20 mg single dose, GLE/PIB 300/120 mg once daily
[10] = rosuvastatin coadministered with lopinavir/ritonavir
[11] = rosuvastatin 5 mg once daily, GLE/PIB 400/120 mg once daily
[12] = lovastatin 10 mg once daily, GLE/PIB 300/120 mg once daily
[13] = sofosbuvir 400 mg once daily, GLE/PIB 400/120 mg once daily
[14] = simvastatin 5 mg once daily, GLE/PIB 300/120 mg once daily
[15] = tacrolimus 1 mg single dose, GLE/PIB 300/120 mg once daily
[16] = pravastatin coadministered with clarithromycin
[17] = pravastatin 10 mg once daily, GLE/PIB 400/120 mg once daily
[18] = valsartan 80 mg single dose, GLE/PIB 300/120 mg once daily
[19] = EFV/FTC/TDF 300/200/300 mg once daily, GLE/PIB 300/120 mg once daily
[20] = losartan 50 mg single dose, GLE/PIB 300/120 mg once daily
[21] = dabigatran etexilate 150 mg single dose, GLE/PIB 300/120 mg once daily

Cn1c(=O)c2c(ncn2C)n(C)c1=O [Caffeine]
Central Value Ratio (90% CI) AUC ([1]; caffeine 100 mg single dose, GLE/PIB 300/120 mg once daily): 1.35

C#C[C@]1(O)CC[C@H]2[C@@H]3CCc4cc(O)ccc4[C@H]3CC[C@@]21C [Ethinyl estradiol (EE), Ethinyl estradiol]
Central Value Ratio (90% CI) AUC [1, 3]: 1.40 | Central Value Ratio (90% CI) Cmax [1, 3]: 1.30 | Central Value Ratio (90% CI) Cmin [1, 3]: 1.56 | Central Value Ratio (90% CI) AUC [1, 4]: 1.28 | Central Value Ratio (90% CI) Cmax [1, 4]: 1.31 | Central Value Ratio (90% CI) Cmin [1, 4]: 1.38

Cc1cc(/C=C/C#N)cc(C)c1Nc1ccnc(Nc2ccc(C#N)cc2)n1 [Rilpivirine]
Central Value Ratio (90% CI) AUC [1, 5]: 1.84 | Central Value Ratio (90% CI) Cmax [1, 5]: 2.05 | Central Value Ratio (90% CI) Cmin [1, 5]: 1.77

COc1cc2c(cc1Cc1cccc(Cl)c1F)c(=O)c(C(=O)O)cn2[C@H](CO)C(C)C [Elvitegravir]
Central Value Ratio (90% CI) AUC [1, 6]: 1.47 | Central Value Ratio (90% CI) Cmax [1, 6]: 1.36 | Central Value Ratio (90% CI) Cmin [1, 6]: 1.71

Nc1nc(NC2CC2)c2ncn([C@H]3C=C[C@@H](CO)C3)c2n1 [Abacavir]
Central Value Ratio (90% CI) Cmin ([1]; ABC/DTG/3TC 600/50/300 mg once daily, GLE/PIB 300/120 mg once daily): 1.31

C#C[C@]1(O)CC[C@H]2[C@@H]3CCC4=CC(=NO)CC[C@@H]4[C@H]3CC[C@@]21CC (mixture of isomers) [Norgestromin]
Central Value Ratio (90% CI) AUC [1, 4]: 1.44 | Central Value Ratio (90% CI) Cmin [1, 4]: 1.45

Cc1nnc(C(=O)NC(C)(C)c2nc(C(=O)NCc3ccc(F)cc3)c(O)c(=O)n2C)o1 [Raltegravir]
Central Value Ratio (90% CI) AUC [1, 7]: 1.47 | Central Value Ratio (90% CI) Cmax [1, 7]: 1.34 | Central Value Ratio (90% CI) Cmin [1, 7]: 2.64

COc1ccc2c(c1)[C@]13CCCC[C@@H]1[C@H](C2)N(C)CC3 [Dextromethorphan]
Central Value Ratio (90% CI) AUC [1, 8]: 0.75 | Central Value Ratio (90% CI) Cmax [1, 8]: 0.70

COc1ccc2[nH]c([S+]([O-])Cc3ncc(C)c(OC)c3C)nc2c1 (stereo not shown) [Omeprazole]
Central Value Ratio (90% CI) AUC [1, 9]: 0.79 | Central Value Ratio (90% CI) Cmax [1, 9]: 0.57

CC(C)c1nc(N(C)S(C)(=O)=O)nc(-c2ccc(F)cc2)c1/C=C/[C@@H](O)C[C@@H](O)CC(=O)O [rosuvastatin]
AUC increase [2, 10]: 2.1 fold | Cmax increase [2, 10]: 5 fold | Central Value Ratio (90% CI) AUC [1, 11]: 2.15 | Central Value Ratio (90% CI) Cmax [1, 11]: 5.62

CC[C@H](C)C(=O)O[C@H]1C[C@@H](C)C=C2C=C[C@H](C)[C@H](CC[C@@H](O)C[C@@H](O)CC(=O)O)[C@H]21 [Lovastatin acid]
Central Value Ratio (90% CI) AUC [1, 12]: 4.10 | Central Value Ratio (90% CI) Cmax [1, 12]: 5.73

C[C@@]1(F)[C@H](O)[C@@H](CO)O[C@H]1n1ccc(=O)[nH]c1=O [GS-331007]
Central Value Ratio (90% CI) Cmin [1, 13]: 1.85

CCC(C)(C)C(=O)O[C@H]1C[C@@H](C)C=C2C=C[C@H](C)[C@H](CC[C@@H]3C[C@@H](O)CC(=O)O3)[C@H]21 [simvastatin]
Central Value Ratio (90% CI) AUC [1, 14]: 2.32 | Central Value Ratio (90% CI) Cmax [1, 14]: 1.99

C=CC[C@@H]1/C=C(\C)C[C@H](C)C[C@H](OC)[C@H]2O[C@@](O)(C(=O)C(=O)N3CCCC[C@H]3C(=O)O[C@H](/C(C)=C/[C@@H]3CC[C@@H](O)[C@H](OC)C3)[C@H](C)[C@@H](O)CC1=O)[C@H](C)C[C@@H]2OC [Tacrolimus]
Central Value Ratio (90% CI) AUC [1, 15]: 1.45 | Central Value Ratio (90% CI) Cmax [1, 15]: 1.50

CC[C@H](C)C(=O)O[C@H]1C[C@H](O)C=C2C=C[C@H](C)[C@H](CC[C@@H](O)C[C@@H](O)CC(=O)O)[C@H]21 [pravastatin]
AUC increase [2, 16]: 2.3 fold | Cmax increase [2, 16]: 2.1 fold | Central Value Ratio (90% CI) AUC [1, 17]: 2.30 | Central Value Ratio (90% CI) Cmax [1, 17]: 2.23

C#CC1(O)CC[C@H]2[C@@H]3CCC4=CC(=O)CC[C@@H]4[C@H]3CC[C@@]21CC (mixture of isomers) [Norgestrel]
Central Value Ratio (90% CI) AUC [1, 3]: 1.68 | Central Value Ratio (90% CI) Cmax [1, 3]: 1.37 | Central Value Ratio (90% CI) Cmin [1, 3]: 1.77 | Central Value Ratio (90% CI) AUC [1, 4]: 1.63 | Central Value Ratio (90% CI) Cmax [1, 4]: 1.54 | Central Value Ratio (90% CI) Cmin [1, 4]: 1.75

Cc1ncc2n1-c1ccc(Cl)cc1C(c1ccccc1F)=NC2 [Midazolam]
Central Value Ratio (90% CI) AUC ([1]; midazolam 1 mg single dose, GLE/PIB 300/120 mg once dally): 1.27

CC[C@H](C)C(=O)O[C@H]1C[C@@H](C)C=C2C=C[C@H](C)[C@H](CC[C@@H]3C[C@@H](O)CC(=O)O3)[C@H]21 [lovastatin]
Central Value Ratio (90% CI) AUC [1, 12]: 1.70

CCCCC(=O)N(Cc1ccc(-c2ccccc2-c2nnn[nH]2)cc1)[C@H](C(=O)O)C(C)C [Valsartan]
Central Value Ratio (90% CI) AUC [1, 18]: 1.31 | Central Value Ratio (90% CI) Cmax [1, 18]: 1.36

C[C@H](Cn1cnc2c(N)ncnc21)OCP(=O)(O)O [Tenofovir]
Central Value Ratio (90% CI) AUC [1, 19]: 1.29 | Central Value Ratio (90% CI) Cmin [1, 19]: 1.38

CCC(C)(C)C(=O)O[C@H]1C[C@@H](C)C=C2C=C[C@H](C)[C@H](CC[C@@H](O)C[C@@H](O)CC(=O)O)[C@H]21 [Simvastatin acid]
Central Value Ratio (90% CI) AUC [1, 14]: 4.48 | Central Value Ratio (90% CI) Cmax [1, 14]: 10.7

CC(C)OC(=O)[C@H](C)N[P@](=O)(OC[C@H]1O[C@@H](n2ccc(=O)[nH]c2=O)[C@](C)(F)[C@@H]1O)Oc1ccccc1 [Sofosbuvir]
Central Value Ratio (90% CI) AUC [1, 13]: 2.25 | Central Value Ratio (90% CI) Cmax [1, 13]: 1.66

CCCCc1nc(Cl)c(CO)n1Cc1ccc(-c2ccccc2-c2nn[nH]n2)cc1 [Losartan]
Central Value Ratio (90% CI) AUC [1, 20]: 1.56 | Central Value Ratio (90% CI) Cmax [1, 20]: 2.51

[H]/N=C(/N)c1ccc(NCc2nc3cc(C(=O)N(CCC(=O)O)c4ccccn4)ccc3n2C)cc1 [dabigatran]
Central Value Ratio (90% CI) AUC [1, 21]: 2.38 | Central Value Ratio (90% CI) Cmax [1, 21]: 2.05
